Values quoted from earlier work, collected in patent US20080003281A1, “Modified Release Tablet Formulations for Proton Pump Inhibitors” (ASTRAZENECA AB, priority 2004, published 2008).

Test system: gastric acid
Settings: 40 mg esomeprazole dose split into 20 mg bid

COc1ccc2nc([S@@+]([O-])Cc3ncc(C)c(OC)c3C)[nH]c2c1 [esomeprazole, (−)-enantiomer of omeprazole]
nocturnal gastric acid suppression: significantly improved
